Measurements taken from patent publication US7553864B2, “Compounds for the treatment of inflammatory disorders and microbial diseases” (Schering Corporation, priority 2005, dated 2009).

Test system: LpxC enzyme
Experiment: LpxC enzyme assay (RapidFire high-throughput mass spectrometry)
Assay type: biochemical
Method in brief: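 0.2 nM enzyme with 1.0 μM UDP-3-O-(R-3-hydroxymyristoyl)-N-acetylglucosamine in 25 mM HEPES pH 7.3, 150 mM NaCl, 2.0 mM DTT, 0.01% BSA, 2% DMSO; 60 min at room temperature, quenched with HCl. Substrate and product quantified by RapidFire mass spectrometry; percent conversion gives percent inhibition versus DMSO control.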

[1] = concentration 0.10 (unit not given)
[2] = concentration 0.20 (unit not given)
[3] = concentration 0.39 (unit not given)
[4] = concentration 0.78 (unit not given)
[5] = concentration 1.56 (unit not given)
[6] = concentration 3.13 (unit not given)
[7] = concentration 6.25 (unit not given)
[8] = concentration 12.50 (unit not given)
[9] = concentration 25 (unit not given)
[10] = concentration 50 (unit not given)

Compound	LpxC enzyme assay rating (% inhibition at indicated concentrations) [1]	LpxC enzyme assay rating (% inhibition at indicated concentrations) [2]	LpxC enzyme assay rating (% inhibition at indicated concentrations) [3]	LpxC enzyme assay rating (% inhibition at indicated concentrations) [4]	LpxC enzyme assay rating (% inhibition at indicated concentrations) [5]	LpxC enzyme assay rating (% inhibition at indicated concentrations) [6]	LpxC enzyme assay rating (% inhibition at indicated concentrations) [7]	LpxC enzyme assay rating (% inhibition at indicated concentrations) [8]	LpxC enzyme assay rating (% inhibition at indicated concentrations) [9]	LpxC enzyme assay rating (% inhibition at indicated concentrations) [10]
O=C([C@H](O)[C@@H](O)C(=O)N1CCC(c2ccc(C(F)(F)F)cc2)CC1)N1CCCC1 [Compound 69]	C (less than 10% inhibition)	C (less than 10% inhibition)	C (less than 10% inhibition)	C (less than 10% inhibition)	C (less than 10% inhibition)	C (less than 10% inhibition)	C (less than 10% inhibition)	C (less than 10% inhibition)	C (less than 10% inhibition)	C (less than 10% inhibition)
O=C([C@H](O)[C@@H](O)C(=O)N1CCC(c2ccc3ccccc3c2)CC1)N1CCCC1 [Compound 70]	C (less than 10% inhibition)	C (less than 10% inhibition)	C (less than 10% inhibition)	B (10-30% inhibition)	C (less than 10% inhibition)	C (less than 10% inhibition)	C (less than 10% inhibition)	C (less than 10% inhibition)	B (10-30% inhibition)	C (less than 10% inhibition)
O=C(Nc1ccc(Oc2ccccc2)cc1)[C@H](O)[C@@H](O)C(=O)N1CCCC1 [Compound 71]	B (10-30% inhibition)	C (less than 10% inhibition)	B (10-30% inhibition)	B (10-30% inhibition)	B (10-30% inhibition)	B (10-30% inhibition)	C (less than 10% inhibition)	C (less than 10% inhibition)	C (less than 10% inhibition)	C (less than 10% inhibition)
CN1CCN(c2ccc(NC(=O)[C@H](O)[C@@H](O)C(=O)N3CCCC3)cc2)CC1 [Compound 72]	B (10-30% inhibition)	C (less than 10% inhibition)	C (less than 10% inhibition)	C (less than 10% inhibition)	C (less than 10% inhibition)	C (less than 10% inhibition)	C (less than 10% inhibition)	C (less than 10% inhibition)	C (less than 10% inhibition)	B (10-30% inhibition)
CN(C)CCOc1ccc(NC(=O)[C@H](O)[C@@H](O)C(=O)N2CCCC2)cc1 [Compound 73]	C (less than 10% inhibition)	B (10-30% inhibition)	C (less than 10% inhibition)	B (10-30% inhibition)	C (less than 10% inhibition)	C (less than 10% inhibition)	C (less than 10% inhibition)	C (less than 10% inhibition)	C (less than 10% inhibition)	C (less than 10% inhibition)
CN(C)CCCOc1ccc(NC(=O)[C@H](O)[C@@H](O)C(=O)N2CCCC2)cc1 [Compound 74]	B (10-30% inhibition)	C (less than 10% inhibition)	C (less than 10% inhibition)	C (less than 10% inhibition)	B (10-30% inhibition)	B (10-30% inhibition)	C (less than 10% inhibition)	C (less than 10% inhibition)	C (less than 10% inhibition)	C (less than 10% inhibition)
O=C(Nc1ccc(-n2cccn2)cc1)[C@H](O)[C@@H](O)C(=O)N1CCCC1 [Compound 75]	C (less than 10% inhibition)	C (less than 10% inhibition)	C (less than 10% inhibition)	B (10-30% inhibition)	C (less than 10% inhibition)	B (10-30% inhibition)	B (10-30% inhibition)	C (less than 10% inhibition)	C (less than 10% inhibition)	B (10-30% inhibition)
O=C(Nc1ccc(-c2cc[nH]n2)cc1)[C@H](O)[C@@H](O)C(=O)N1CCCC1 [Compound 76]	C (less than 10% inhibition)	C (less than 10% inhibition)	C (less than 10% inhibition)	C (less than 10% inhibition)	B (10-30% inhibition)	C (less than 10% inhibition)	B (10-30% inhibition)	C (less than 10% inhibition)	C (less than 10% inhibition)	C (less than 10% inhibition)
C[C@H](O)[C@@H](NC(=O)[C@H](O)[C@@H](O)C(=O)N(C)C)C(=O)Nc1ccc(C#Cc2ccccc2)cc1 [Compound 77]	C (less than 10% inhibition)	C (less than 10% inhibition)	C (less than 10% inhibition)	C (less than 10% inhibition)	C (less than 10% inhibition)	C (less than 10% inhibition)	C (less than 10% inhibition)	B (10-30% inhibition)	A (greater than 30% inhibition)	
C[C@@H](O)[C@H](NC(=O)[C@H](O)[C@@H](O)C(=O)N(C)C)C(=O)Nc1ccc(C#Cc2ccccc2)cc1 [Compound 78]	C (less than 10% inhibition)	C (less than 10% inhibition)	B (10-30% inhibition)	C (less than 10% inhibition)	C (less than 10% inhibition)	B (10-30% inhibition)	B (10-30% inhibition)	B (10-30% inhibition)	A (greater than 30% inhibition)	
CN(C)C(=O)[C@H](O)[C@@H](O)C(=O)Nc1ccccc1C#Cc1ccccc1 [Compound 80]	C (less than 10% inhibition)	C (less than 10% inhibition)	C (less than 10% inhibition)	C (less than 10% inhibition)	C (less than 10% inhibition)	C (less than 10% inhibition)	C (less than 10% inhibition)	B (10-30% inhibition)	C (less than 10% inhibition)	
CN(C)C(=O)[C@H](O)[C@@H](O)C(=O)Nc1cccc(C#Cc2ccccc2)c1 [Compound 81]	C (less than 10% inhibition)	C (less than 10% inhibition)	C (less than 10% inhibition)	C (less than 10% inhibition)	C (less than 10% inhibition)	C (less than 10% inhibition)	C (less than 10% inhibition)	C (less than 10% inhibition)	C (less than 10% inhibition)	
